Literature values, collected in patent US20120128784A1, “COMPOSITION CONTAINING BEE VENOM AS AN ACTIVE INGREDIENT FOR PREVENTING AND TREATING ACNE” (Dong Sung Pharm. Co., Ltd., priority 2009, published 2012).

System: edema
Details: injected into arthritis patients

**Q.** With `CC[C@H](C)[C@H](NC(=O)CN)C(=O)NCC(=O)N[C@@H](C)C(=O)N[C@H](C(=O)N[C@@H](CC(C)C)C(=O)N[C@@H](CCCCN)C(=O)N[C@H](C(=O)N[C@@H](CC(C)C)C(=O)N[C@H](C(=O)N[C@H](C(=O)NCC(=O)N[C@@H](CC(C)C)C(=O)N1CCC[C@H]1C(=O)N[C@@H](C)C(=O)N[C@@H](CC(C)C)C(=O)N[C@H](C(=O)N[C@@H](CO)C(=O)N[C@@H](Cc1c[nH]c2ccccc12)C(=O)N[C@H](C(=O)N[C@@H](CCCCN)C(=O)N[C@@H](CCCNC(=N)N)C(=O)N[C@@H](CCCCN)C(=O)N[C@@H](CCCNC(=N)N)C(=O)N[C@@H](CCC(N)=O)C(=O)N[C@@H](CCC(N)=O)C(N)=O)[C@@H](C)CC)[C@@H](C)CC)[C@@H](C)O)[C@@H](C)O)C(C)C)C(C)C` [melittin] as the compound, how does the inhibition of edema read?
**A.** Its inhibition of edema is “edema was significantly inhibited”.
